Source: patent publication US6355630B1, “Estra-1,3,5(10)-triene-7α-thioethers” (priority 1997, dated 2002)
Where two headings read alike, the source gives them in different places.

Key:
human estrogen receptor = target: T1, human estrogen receptor (Homo sapiens, UniProt P03372); test: In vitro estrogen receptor binding test procedure ([3H]-17β-estradiol competition)
T1 construct: expressed in transfected cells; host or cells: Chinese Hamster ovary (CHO) cells; ribosome-free cytosol
T1 sequence (P03372 1-595): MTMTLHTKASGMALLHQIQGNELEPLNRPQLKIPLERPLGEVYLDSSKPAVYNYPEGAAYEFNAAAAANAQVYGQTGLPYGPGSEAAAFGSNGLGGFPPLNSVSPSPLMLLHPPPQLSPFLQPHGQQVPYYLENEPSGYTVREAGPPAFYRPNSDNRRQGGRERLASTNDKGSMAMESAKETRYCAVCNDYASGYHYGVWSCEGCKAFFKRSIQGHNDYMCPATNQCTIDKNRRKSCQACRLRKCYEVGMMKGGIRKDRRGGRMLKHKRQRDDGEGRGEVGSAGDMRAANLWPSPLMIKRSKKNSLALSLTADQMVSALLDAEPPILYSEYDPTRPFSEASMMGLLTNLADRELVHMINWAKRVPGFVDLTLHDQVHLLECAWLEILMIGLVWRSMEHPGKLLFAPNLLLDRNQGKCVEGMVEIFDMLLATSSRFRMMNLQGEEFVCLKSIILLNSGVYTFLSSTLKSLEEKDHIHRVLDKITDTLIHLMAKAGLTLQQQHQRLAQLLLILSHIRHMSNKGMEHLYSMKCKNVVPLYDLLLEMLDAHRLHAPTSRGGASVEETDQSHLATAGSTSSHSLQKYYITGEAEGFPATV
Procedure: In vitro Estrogen Receptor Binding Test Procedure
Chinese Hamster ovary (CHO) cells overexpressing the estrogen receptor were grown in […] dishes in DMEM+10% dextran coated charcoal, stripped fetal bovine serum. The plates were washed twice with PBS and once with 10 mM Tris-HCl, pH 7.4, 1 mM EDTA. Cells were harvested by scraping the surface and then the cell suspension was placed on ice. Cells were disrupted with a hand-held motorized tissue grinder using two, 10-second bursts. The crude preparation was centrifuged at 12,000 g for 20 minutes followed by a 60 minute spin at 100,000 G to produce a ribosome free cytosol. The cytosol was then frozen and stored at −80° C. Protein concentration of the cytosol was estimated using the BCA assay with reference standard protein.
Binding Test Procedure Conditions
100 uG/100 uL of the receptor preparation was aliquoted per well. […] The plate was incubated at room temperature for 2.5 h. At the end of this incubation period 150 uL of ice-cold dextran coated charcoal (5% activated charcoal coated with 0.05% 69K dextran) was added to each well and the plate was immediately centrifuged at 99 g for 5 minutes at 4° C. 200 uL of the supernatant solution was then removed for scintillation counting. Samples were counted to 2% or 10 minutes, whichever occurs first. […] Also, wells containing radioactivity but no cytosol were processed with charcoal to estimate unremovable DPM of [^3H] […] 96-well plates were used because they have proven to bind the least amount of estradiol.
Counts per minute (CPM) of radioactivity were automatically converted to disintegrated per minute (DPM) by the Beckman LS 7500 Scintillation Counter using a set of quenched standards to generate a H# for each sample. To calculate the % of estradiol binding in the presence of 100 or 500 fold competitor the following formula was applied:
((DPM sample−DPM not removed by charcoal/(DPM estradiol−DPM not removed by charcoal))×100%=% of estradiol binding
For the generation of IC50 curves, % binding is plotted vs compound. […] Values are reported as IC50 values. […] For a description of these methods, see Hulme, E. C., ed. 1992. Receptor-Ligand Interactions: A Practical Approach. IRL Press, New York.(see especially chapter 8).
Compounds were tested for their ability to displace estradiol in a human ER-receptor preparation as described above.

Ishikawa uterine cells = test: Ishikawa cell alkaline phosphatase test procedure; type: cell-based, human; settings: for Alkaline phosphatase activity, percent of response related to 1 nM 17β-estradiol: 48 h; for Behaviour in the uterine cell line (agonist/antagonist): in words, from Table 2
Procedure: Ishikawa Cell Alkaline Phosphatase Test Procedure
Cell Maintenance and Treatment
Ishikawa cells were maintained in DMEM/F12 (50%:50%) containing phenol red+10% fetal bovine serum and the medium was supplemented with 2 mM Glutamax, 1% Pen/Strap and 1 mM sodium pyruvate. Five days prior to the beginning of each evaluation (treatment of cells) the medium was changed to phenol red-free DMEM/F12+10% dextran coated charcoal stripped serum. On the day before treatment, cells were harvested using 0.5% trypsin/EDTA and plated at a density of 5×10^4 cells/well in 96-well tissue culture plates. […] Cells were treated for 48 h prior to assay. […] Sample population for at each dose was n=8.
Alkaline Phosphatase Test Procedure
At the end of 48 h the media was aspirated and cells were washed three times with phosphate buffered saline (PBS); 50 μL of lysis buffer (0.1 M Tris-HCl, pH 9.8, 0.2% Triton X-100) was added to each well. Plates were placed at −80° C. for a minimum of 15 minutes. Plates were thawed at 37° C. followed by the addition of 150 μL of 0.1 M Tris-HCl, pH 9.8, containing 4 mM para-nitrophenylphosphate (pNPP) to each well (final concentration, 3 mM pNPP).
Absorbance and slope calculations were made using the KineticCalc Application program (Bio-Tek Instruments, Inc., Winooski, Vt.). Results are expressed as the mean +/−S.D. of the rate of enzyme reaction (slope) averaged over the linear portion of the kinetic reaction curve (optical density readings every 5 minutes for 30 minutes absorbance reading).
The four compounds were used as reference standards:
A description of these methods is described by Holinka, C. F., Hata, H., Kuramoto, H. and Gurpide, E. (1986) Effects of steroid hormones and antisteroids on alkaline phosphatase activity in human endometrial cancer cells (Ishikawa Line). Cancer Research, 46:2771-2774, and by Littlefield, B. A., Gurpide, E., Markiewicz, L., McKinley, B. and Hochberg, R. B. (1990) A simple and sensitive microtiter plate estrogen bioassay based on stimulation alkaline phosphatase in Ishikawa cells; Estrogen action of D5 adrenal steroids. Endocrinology, 6:2757-2762.

rat uterus = test: Rat uterotrophic/antiuterotrophic test procedure; type: in vivo; settings: daily ip, 4-day immature rat
Procedure: Rat Uterotrophic/Antiuterotrophic Test Procedure
The estrogenic and antiestrogenic properties of the compounds were determined in a 4-day immature rat uterotrophic assay (as described previously by L. J. Black and R. L. Goode, Life Sciences, 26, 1453 (1980)). Immature Sprague-Dawley rats (female, 18 days old) were tested in groups of six. […] On day 4 the animals were sacrificed by CO2 asphyxiation and their uteri were removed and stripped of excess lipid, any fluid removed and the wet weight determined. A small section of one horn was submitted for histology and the remainder used to isolate total RNA in order to evaluate complement component 3 gene expression.
Representative compounds of this invention were evaluated in the rat uterotrophic/antiuterotrophic assay to determine their in vivo effects on the rat uterus.

[1] = 1 uM compound + 1 nM E2, antagonist mode

Row | SMILES | IC50 (human estrogen receptor) [nM] | Alkaline phosphatase activity, percent of response related to 1 nM 17β-estradiol (Ishikawa uterine cells; 0.01 uM compound, agonist mode) [%] | Alkaline phosphatase activity, percent of response related to 1 nM 17β-estradiol (Ishikawa uterine cells; 0.1 uM compound, agonist mode) [%] | Alkaline phosphatase activity, percent of response related to 1 nM 17β-estradiol (Ishikawa uterine cells; [1]) [%] | Alkaline phosphatase activity, percent of response related to 1 nM 17β-estradiol (Ishikawa uterine cells; 1 uM compound, agonist mode) [%] | Uterine wet weight (rat uterus; 1 ug Cpd) [mg] | Uterine wet weight (rat uterus; 100 ug Cpd) [mg] | IC50 (human estrogen receptor; read-out: Receptor IC50) [nM] | Behaviour in the uterine cell line (agonist/antagonist) (Ishikawa uterine cells) | Uterine wet weight (rat uterus; 1 ug E2 + 100 ug Cpd) [mg]
1 | CCCCN(C)C(=O)CCCCCCCCCCS[C@@H]1C(=O)c2cc(O)ccc2[C@H]2CC[C@]3(C)[C@@H](O)CC[C@H]3[C@H]12 [Example 16, (7α,17β) 7-[10-(N-Butyl-N-methyl-carbamoyl)-decyl]thio-3,17-dihydroxy-estra-1,3,5(10)-triene-6-one] | 300 | 7 | 22 | 66 | 42 | 41.3 | 72.5 |  |  | 
2 | C[C@]12CC[C@@H]3c4ccc(O)cc4C(=O)[C@@H](Sc4ccc(Br)cc4)[C@H]3[C@@H]1CC[C@@H]2O [Example 6, (7α,17β) 7-(4-Bromophenyl)thio-3,17-dihydroxy-estra-1,3,5(10)-trien-6-one] |  | 31 | 100 | 109 | 104 | 29.0 | 97.7 | 1500 | fully efficacious agonists | 
3 | CCCCN(C)C(=O)CCCCCCCCCCS[C@H]1[C@@H]2[C@H](CC[C@]3(C)[C@@H](O)CC[C@@H]23)c2ccc(O)cc2[C@H]1O [Example 17, (6α,7α,17β) 7-[10-(N-Butyl-N-methyl-carbamoyl)-decyl]thio-estra-1,3,5(10)-triene-3,6,17-triol] |  | 0 | 0 | 28 | 1 | 36.5 | 64.2 | 400 | pure estrogen antagonists | 
4 | C[C@]12CC[C@@H]3c4ccc(O)cc4[C@@H](O)[C@@H](Sc4ccc(O)cc4)[C@H]3[C@@H]1CC[C@@H]2O [Example 3, (6α,7α,17β) 7-(4-Hydroxyphenyl)thio-estra-1,3,5(10)-triene-3,6,17-triol] |  | 86 | 88 | 97 | 75 | 62.4 | 99.9 | 10 |  | 106.1
